According to patent EP0408371B1, “Hemoregulatory peptides” (SMITHKLINE BEECHAM CORPORATION, priority 1989, dated 1994):
Like-named read-outs stand apart in the source and are kept apart here. Square brackets hold non-standard residues; d marks the D form. Ends that are not written are not given here. pGlu = O=C1CC[C@@H](C(=O)O)N1

Assays:
[1] = system: human bone marrow stromal cell line, C6; experiment: Induction of colony stimulating activity by stromal cells; supernatant tested in soft agar assay (CFU-C); format: cell-based; conditions: 5% Supernatant, Lewis rat bone marrow cells
Protocol: The human bone marrow stromal cell line, C6, is grown to confluency in plastic tissue culture dishes in RPMI-1640 medium and 5% FBS. On the day prior to the experiment this medium is changed to DMEM without added serum. To these cultures, the compounds are added for one hour, then washed from the cultures. The medium is replaced with fresh DMEM and the cells are incubated for 24 hours at 37°C, 5% CO₂. After 24 hours the C6 cell culture supernatant is collected, sterile filtered, and frozen until it can be assayed for the presence of hematopoietic colony stimulating activity (CSA) as set forth below.
Bone marrow cells are obtained from Lewis rats. They are adjusted to 10⁶ cells/ml in DMEM without serum. A single later agar system utilizing the following is used: DMEM enriched with nutrients (NaHCO₃, pyruvate, amino acids, vitamins, and HEPES buffer); 0.3% Bacto agar, and 20% Lewis rat serum. To this are added dilutions of C6 cell line supernatant (10-2.5%) from above along with rat bone marrow cells (final concentration = 10⁵ cells/ml). The agar plates are incubated at 37°C, 5% CO₂ for 7-8 days. Colonies of proliferating bone marrow cells (CFU-C) are counted utilizing a microscope. The number of agar colonies counted is proportional to the amount of CSA present within the C6 bone marrow stromal cell line supernatant.

murine CFU-gm = murine CFU-gm in vitro; cited from earlier work
[2] = system: murine myelopoietic cells; conditions: in vivo; cited from earlier work
human CFU-gm = human CFU-gm in vitro; cited from earlier work
myelopoietic cells [3] = conditions: in vivo; cited from earlier work
myelopoietic cells [4] = conditions: in vitro; cited from earlier work

(pGlu-Glu-Asp)₂-Sub-(Lys)₂ [Example 2]
Hematopoietic Colony Stimulating Activity, Percent of Control ([1]; Dose 0.01 ng/ml): 97% of Control
Hematopoietic Colony Stimulating Activity, Percent of Control ([1]; Dose 0.1 ng/ml): 154% of Control
Hematopoietic Colony Stimulating Activity, Percent of Control ([1]; Dose 1 ng/ml): 188% of Control
Hematopoietic Colony Stimulating Activity, Percent of Control ([1]; Dose 10 ng/ml): 207% of Control
Hematopoietic Colony Stimulating Activity, Percent of Control ([1]; Dose 100 ng/ml): 241% of Control
Hematopoietic Colony Stimulating Activity, Percent of Control ([1]; Dose 1000 ng/ml): 192% of Control

HP-5: oxidation product of pGlu-Glu-Asp-Cys-Lys, a dimer formed by disulfide bridges (EP-A-0267741) ([pGlu]EDCK; also: disulfide-linked dimer (oxidation product))
colony formation of CFU-gm (murine CFU-gm): strongly stimulates colony formation
effect on murine myelopoietic cells [2]: up regulates murine myelopoietic cells
colony formation of CFU-gm (human CFU-gm): strongly stimulates colony formation

pGlu-Glu-Asp-Cys-Lys ([pGlu]EDCK)
effect on myelopoietic cells (myelopoietic cells [3]): selective inhibitory effect
effect on myelopoietic cells (myelopoietic cells [4]): selective inhibitory effect
